The text below walks through data of article PMC12287140, “Branched-chain amino acid catabolism initiates volatile synthesis in Gentiana triflora” (Planta, 2025).

Usually Km stands for the substrate concentration at which the rate is half of its maximum.

One test relates to T1, GeBCAT2.
T1 construct: open reading frame (411 aa, predicted plastid transit peptide) in pEU-FLAG-GST-GW; FLAG-GST tag, no cleavage told; wheat cell-free synthesis, GST-purified
Description: deamination assay, LC-TOF-MS of PFBHA-derivatized keto acid. The class given is biochemical, Gentiana triflora. The note with it: 120 mM alpha-ketoglutarate, 0.16 mM PLP, 4 mM DTT, 0.1 M Tris-HCl pH 8.0, 33 °C. An excerpt:
deamination assay, LC-TOF-MS of PFBHA-derivatized keto acid on GeBCAT2 | Km and Vmax values of recombinant GeBCAT1 and GeBCAT2 are shown for different substrates

The next test has as its system T2, GeBCAT1.
T2 construct: open reading frame (390 aa, predicted mitochondrial transit peptide) in pEU-FLAG-GST-GW; FLAG-GST tag, no cleavage told; wheat cell-free synthesis, GST-purified
The test is described as above. Type of test: biochemical, Gentiana triflora. The settings on record: 120 mM alpha-ketoglutarate, 0.16 mM PLP, 4 mM DTT, 0.1 M Tris-HCl pH 8.0, 33 °C. An excerpt:
deamination assay, LC-TOF-MS of PFBHA-derivatized keto acid on GeBCAT1 | Km and Vmax values of recombinant GeBCAT1 and GeBCAT2 are shown for different substrates

For the molecule `CC[C@H](C)[C@H](N)C(=O)O` [Ile], the Km in the test on GeBCAT2 stood at 310 ± 15 µM; in the test on GeBCAT1, 88 ± 40 µM.

As for `CC(C)[C@H](N)C(=O)O` [Val], the values for the Km with GeBCAT2 and with GeBCAT1 were 4570 ± 320 µM and 79 ± 15 µM, respectively.

For the molecule `CC(C)C[C@H](N)C(=O)O` [Leu], the results for the Km in the test with GeBCAT2 and with GeBCAT1 were 650 ± 29 µM and 780 ± 280 µM, respectively.
